A short description of series [1]: Histological evaluation of incision healing (skin, subcutaneous tissue, muscle) in swine. In kind it is in vivo. How it is done:
(§1) In this experiment eighteen transcutaneous incisions were made into the dorsal muscles in each of eight pig test animals grouped 1-6. In study groups 1-5, longitudinal incisions were made while in group 6 the incisions were transverse to the longitudinal orientation of the muscle fiber. At each incision site, either nothing, normal saline, or Bleomycin in solution was injected such that injections were placed to a 1 cm depth and spaced at 1 cm distances from one another with three injections, one on each side of each incision within 3 cm of each other and one in the center of the incision. Bleomycin, an anti-cancer agent, was used wherein each injection consisted of 0.125 ml (4 units/ml saline). The incisions were then treated with bipolar pulses of 530 V, 100 μsec each, from a pulse generator using a 6-needle electrode array of 0.5 cm diameter (nominal field strength for each pulse was 1,233 V/cm).
(§2) Specifically, 8 male Yorkshire/Hampshire cross swine (40-50 kg) were acclimated 5-7 days prior to surgery. Incision locations were marked on the dorsum using sterile surgical markers. Each incision was 5 cm long and made to a depth of 5 mm into the muscle. All animals in groups 1-5 received 18 longitudinal incisions each, while animals in group 6 received transverse incisions, in accordance with Table I. Each study group comprised 24 incisions.
Injections of a total volume of 1.5 ml of saline or Bleomycin (6 U) were administered at 12 sites per incision, 6 in the muscle and 6 in the skin. Incisions treated with electroporation were electroporated using a 0.5 cm diameter, 1.5 cm long needle array. On each side of the muscle incision, electroporation was given 3 times in the central 3 cm of the incision, each electroporation site being 1 cm apart from the other. Skin was not electroporated. The epimysium was closed with 4-0 Vicryl absorbable interrupted sutures. The skin was closed with 4-0 nylon interrupted sutures. Swine were sacrificed at 2 d, 1 wk, 2 wks, or 3 wks following surgery. […]

The subject of series [2] is HT-29 human colon carcinoma cells. The conditions noted are these: stated as known, not tested; cited from earlier work.
For series [3] the test system is unchanged. As to the kind of experiment: Tumor recurrence after surgery and Bleomycin electroporation therapy (EPT) in nude mice with HT-29 tumors. In kind it is in vivo. As to conditions: for % efficacy (animals that did NOT experience tumor growth post treatment): three weeks after treatment. How it is done:
In this example, a series of experiments were performed in mice wherein tumor recurrence rates were determined after surgery alone or after surgery and EPT. Specifically, this experiment comprises an in vivo study to establish the efficacy of EPT on surgical margin treatment in nude mice after subcutaneous introduction of HT-29 human colon carcinoma cells and resection of the tumors that arise from such introduction. The experiment was conducted under humane conditions with respect to treatment of the test animals.
The experimental design was as follows. Normal Athymic Nude female mice 4-6 weeks of age were placed in 8 groups of six mice each, except for Group 1 which comprised 10 animals and Group 3 comprising 7 animals. The HT-29 cell line is derived from a human colon carcinoma and is an aggressive fast-growing tumor in mice. In each group the animals received HT-29 human tumor cells in the form of two adjacent inocula of 5×10^6 cells using a 21 gauge needle and syringe. The HT-29 cell line was obtained from […] (#HTB-38), grown in McCoy's 5a medium (modified) with 1.5 mM L-glutamine adjusted to contain 2.2 g/L sodium bicarbonate, 90%, and fetal bovine serum, 10%. Cells were divided 1:2 to 1:4 on growth cycles until sufficient cells were available to use in this experiment.
Following inoculation the tumors became established at the site of the inoculations. The tumor volume on each animal was monitored regularly and calculated using the formula: Tumor volume=(a^2×b/2) where ‘a’ is the smallest diameter and ‘b’ is the largest diameter perpendicular to ‘a’. Tumors were measured three times per week starting from the day the tumors were palpable by hand. The tumors were allowed to progress until the size was between 500 and 1500 cubic millimeters. Surgical tumor removal, partial removal, or no removal was then performed in association with either EPT or no EPT. In these experiments EPT means treatment with Bleomycin and electroporation (EP). The EP, where performed, was conducted with one pulse cycle (i.e., 6 pulses at 4 Hz) per electrode insertion using a standard MedPulser generator (Genetronics, Inc. San Diego, Calif.) and an applicator with a disposable six needle array of 1 cm diameter, a distance between electrodes of 0.86 cm, and 1 cm needle length. […] The needle array was inserted percutaneously and essentially perpendicular to the surface of the flank of the mouse carrying the tumor. Alternatively, in those cases where the tumor was excised first, followed by i.v. injection of Bleomycin and then by EP, the needle electrode array was inserted percutaneously encompassing the surgical wound area (Groups 5-8).
Where Bleomycin was used in the experiment, it was injected at 4 U/ml saline (1U=1 mg) as uniformly as possible into tumor and margin tissues, as indicated, at a dose of 0.25 ml/cm^3 volume of tissue to be treated. Alternatively, where indicated, a corresponding amount of Bleomycin was injected into the tail vein.
The experiment used 8 cohorts of at least 6 mice each. Each cohort was subjected to a treatment regimen of a combination of any of EP, Bleomycin, saline instead of Bleomycin, complete tumor excision, partial tumor excision, and no tumor excision. Tables II and III disclose the treatment regimens.
For experiments on animals listed in Table II, the animals were anaesthetized, followed by removal or partial removal of the tumor as indicated, followed in turn by intraveneous (i.v.) injection of Bleomycin or saline. The Bleomycin dose was dependent on tumor size as described above. After 3 to 4 minutes, the animals indicated were treated with EP followed by closure of the wound with clips and surgical adhesive. In cohort 1, the entire tumor was surgically removed (see, for example FIGS. 12B and C) and the animals treated with Bleomycin and EP. In cohort 2, the tumors were removed from the animals but only saline was injected instead of Bleomycin and no EP was performed. […]

A short description of series [4]: Breaking strength of healing skin incisions in swine after Bleomycin with or without electroporation. In kind it is in vivo. How it is done:
as §1, §2
Injections of a total volume of 1.5 ml of saline or Bleomycin (6 U) were administered at 12 sites per incision, 6 in the muscle and 6 in the skin. Incisions treated with electroporation were electroporated using a 0.5 cm diameter, 1.5 cm long needle array. On each side of the muscle incision, electroporation was given 3 times in the central 3 cm of the incision, each electroporation site being 1 cm apart from the other. Skin was not electroporated. The epimysium was closed with 4-0 Vicryl absorbable interrupted sutures. The skin was closed with 4-0 nylon interrupted sutures. Swine were sacrificed at 2 d, 1 wk, 2 wks, or 3 wks following surgery. Histology specimens containing skin and at least 5 mm depth of underlying muscle were taken from the center of the incision and immediately placed in 10% neutral buffered formalin. An additional control specimen was taken from non-incised skin on the dorsum. After staining and sectioning, skin, subcutaneous tissue, and muscle were graded histologically on a 0-3 scale using the following parameters: Healing, Granulations/Fibrosis, PMN's, Lymphocytes, Histiocytes, Necrosis, Hemorrhage and Atypical Cells.
Mechanical testing was performed on strips of skin removed from the center of the incision at three different time points, namely, Days 7, 14, and 21. […] Breaking strength was determined by plotting the […] versus the strain for each incision up to the breaking point. […]

For series [5], the system named is HT-29 human colon carcinoma cells. Kind of series: Gross consistency of HT-29 tumors excised at various times after Bleomycin-EPT. In kind it is in vivo, mice. On the procedure:
For this purpose, three additional cohort Groups 9, 10, and 11 were used.
The animals of Group 9 were anaesthetized followed by complete excision of the tumors. The tumors were examined for consistency and preserved in formalin for later histological evaluation, as were the tumor tissues of cohorts 10 and 11. Anaesthetized animals of cohort 10 were subjected to intratumoral administration of Bleomycin solution at a dose and volume as described above. EP was performed 10 minutes after drug administration. Tumors were excised 2 hrs after EP. Animals of cohort 11 were treated as those in cohort 10 except that their tumors were completely removed at 24 hrs after EP. All wounds were closed as described above. Results
With respect to cohorts 9-11, we observed that the consistency of the tumor changed progressively with time after treatment. […] At that time point surgical excision was somewhat difficult because the boundaries of the tumor were ill defined as compared to the solid tumor tissue mass of cohort 9 animals. […] These observations provide proof of the opportunity of using drug, such as Bleomycin or other anticancer agent, in combination with EPT as adjuvant or tumor debulking therapy that can additionally be used alone or in conjunction with other cancer therapies. For example, a tumor could be treated with Bleomycin-EPT, the disintegrated tumor material be removed by a simple minimally invasive procedure, and if desired, followed by conventional treatments such as radiation or chemotherapy, or other tumor therapy modalities. Easy removal of the liquefied tumor material can also allow the wound to heal faster and with fewer complications, especially in the case of large tumors.

Take Bleomycin: the “muscle necrosis, Bleomycin plus EP vs Bleomycin” value in series [1] (2 weeks, difference disappeared by 3 weeks) is “significant increase in muscle necrosis”. Further, the histological changes result in series [1] (day 7, Bleomycin groups) was “statistically significant changes”. For the same substance, in series [1] (day 21, all Bleomycin injected samples), the “histology compared with controls” value is given as “comparable with saline-injected controls”. In series [2], the “antitumoral activity of Bleomycin administration without EP” value is “no significant antitumoral activity”. Moreover, the “% efficacy (animals that did NOT experience tumor growth post treatment)” value in series [3] (Group 1: complete tumor excision, Bleomycin i.v., EP) was determined as 90%; in series [3] (Group 3: partial tumor excision, Bleomycin i.v., EP), 67%; in series [3] (Group 5: Bleomycin intratumoral, EP, complete tumor excision 15 minutes later), 100%; in series [3] (Group 6: no tumor excision, Bleomycin intratumoral, EP), 80%; in series [3] (Group 7: Bleomycin intratumoral, EP, partial tumor excision 15 minutes later), 100%; in series [3] (Group 8: no tumor excision, Bleomycin intratumoral, partial (off-centered) EP) it was 67%. Further, the “tumor recurrence at the site of treatment” value in series [3] (Group 1: complete tumor removal, Bleomycin-EP, 3 weeks post treatment (FIG. 12)) is “no tumor recurred”. Further, the tumor recurrence result was “no tumor recurrence” in series [3] (Group 7: partial tumor removal, Bleomycin i.t. and EP, 3 weeks (FIG. 13)); “no tumor recurrence” in series [3] (cohorts 5 and 7: Bleomycin i.t. and EP, excision 15 minutes after treatment). For the same substance, the “reduction of breaking strength of skin incisions compared to non-Bleomycin groups” value in series [4] (1 week post-incision, all three Bleomycin treated groups (with or without EP)) was 90%. Moreover, the “wound strength (breaking point), difference between saline and Bleomycin with or without EP” value in series [4] (three weeks post incision, FIG. 1) is reported as “no substantial difference”. The “breaking strength of skin incisions, difference between groups” value was “no significant differences between Groups 1-5” in series [4] (week 2, longitudinal incisions, Bleomycin with or without EP (Groups 4, 5) vs Groups 1-3); “significantly lower breaking strength” in series [4] (week 3, Group 6, transverse incisions with Bleomycin and EP vs Groups 1-5). Besides, the “consistency of the tumor” value is listed as “softer, less well defined” in series [5] (cohort 10: excised two hours after i.t. Bleomycin-EP); “completely softened” in series [5] (cohort 11: excised 24 hrs after i.t. Bleomycin-EP); “softening of the tumor” in series [5] (cohorts 5 and 7: removed 15 minutes after i.t. Bleomycin-EP).

These data come from patent publication US9037230B2, “Method and device for treating microscopic tumors remaining in tissues following surgical resection” (OncoSec Medical Incorporated, priority 2006, dated 2015).
